Data on one compound can be found in patent US20210076677A1, “NOVEL PESTICIDAL COMBINATIONS” (priority 2017, published 2021).

The structures appear in SMILES notation.

Assay [1] deals with Helicoverpa armigera in tomato. Nature of the assay: Field trial, fruit borer control in tomato (Colby synergy). Format: in vivo. To be noted: 10 days after application, Mancozeb + Azoxystrobin 1750 g/ha, Chlorantriniprole 150 g/ha. As to the method:
Studies were conducted to compare the efficacy of the combination of amide insecticides with fungicides selected from the various classes and to compare their observed efficacy with the ‘expected_ efficacy when amide insecticides and fungicides were used to treat fungal and insect pests. Any difference between the observed and ‘expected_ efficacy could be attributed to synergy between the two compounds in the control of fungal and insect pests. The expected efficacy of a combination of amide insecticides with fungicides was calculated using the well-established Colby method.
In the Colby method, the expected (or predicted) response of a combination of actives is calculated by taking the product of the observed response for each individual component of the combination when applied alone divided by 100 and subtracting this value from the sum of the observed response for each component when applied alone. An unexpected enhancement in efficacy of the combination is then determined by comparing the observed response of the combination to the expected (or predicted) response as calculated from the observed response of each individual component alone. If the observed response of the combination is greater than the expected (or predicted) response, or stated conversely, if the difference between the observed and expected response is greater than zero, then the combination is said to be synergistic or unexpectedly effective. (Colby, S. R., Weeds, 1967(15), p. 20-22) The Colby method requires only a single dose of each active applied alone and the mixture of both doses. […]
The efficacy of the individual actives of the invention and their combinations were evaluated on various fungal and insect pests. […]
Further field trials were carried out to test the synergy of the combination amide […] chlorantriniprole in combination with fungicides for the control of Helicoverpa armigera in tomato. […] The percentage efficacy was calculated after 10 days of applications and the results are recorded in the table below: […]

In assay [2] the test system is Alternaria solani in tomato. Briefly: Field trial, early blight control in tomato (Colby synergy). Format: in vivo. To be noted: 10 days after application, Mancozeb + Azoxystrobin 1750 g/ha, Chlorantriniprole 150 g/ha. As to the method: Studies were conducted to compare the efficacy of the combination of amide insecticides with fungicides selected from the various classes and to compare their observed efficacy with the ‘expected_ efficacy when amide insecticides and fungicides were used to treat fungal and insect pests. Any difference between the observed and ‘expected_ efficacy could be attributed to synergy between the two compounds in the control of fungal and insect pests. The expected efficacy of a combination of amide insecticides with fungicides was calculated using the well-established Colby method. […] An unexpected enhancement in efficacy of the combination is then determined by comparing the observed response of the combination to the expected (or predicted) response as calculated from the observed response of each individual component alone. If the observed response of the combination is greater than the expected (or predicted) response, or stated conversely, if the difference between the observed and expected response is greater than zero, then the combination is said to be synergistic or unexpectedly effective. (Colby, S. R., Weeds, 1967(15), p. 20-22) The Colby method requires only a single dose of each active applied alone and the mixture of both doses. The formula used to calculate the expected efficacy (EE) which was compared with the observed efficacy (OE) to determine the efficacy of the present invention is explained hereinbelow: […] The efficacy of the individual actives of the invention and their combinations were evaluated on various fungal and insect pests. The trial was carried out in Randomized Complete Block (RCB) method, all field trials were conducted using this method. Each trial was replicated three times and conducted under GEP guidelines. Application volumes were varied for each mixture. Such field trials were carried out at various locations so as to generate independent data, the locations were chosen randomly across India. […]

With `CNC(=O)c1cc(Cl)cc(C)c1NC(=O)c1cc(Br)nn1-c1ncccc1Cl` [Chlorantriniprole, chlorantraniliprole], the “% control of pest, Fruit Borer control in tomato 10DAA, Actual” value in assay [1] (first trial (columns c2/c3)) came out at 75.8%; in assay [1] (second trial (columns c4/c5)) it was 86.4%; in assay [1] (third trial (columns c6/c7)), 88.4%. Also, the figures for the “% Disease control, Early Blight Control in tomato 10DAA, Actual” value in assay [2] (first trial (columns c2/c3)), in assay [2] (second trial (columns c4/c5)) and in assay [2] (third trial (columns c6/c7)) were 1.91%, 1.86% and 2.70%, respectively.
